Assay results as given in ChEMBL document CHEMBL5696442, “Discovery of type II inhibitors of TGFβ-activated kinase 1 (TAK1) and mitogen-activated protein kinase kinase kinase kinase 2 (MAP4K2)” (J Med Chem, 2015).
Active and inactive are the calls of the source. The rule behind the calls is not given here.

Tests used:
[1] = molecular target: Serine/threonine-protein kinase Nek6 (Homo sapiens) (UniProt Q9HC98); assay: Inhibition of NEK6 Lys2 labeling site harbouring DIKPANVFITATGVVK in human Huh-7 cell lysate at 1 uM by KiNativ Profiling analysis relative to control; format: subcellular
Sequence of Serine/threonine-protein kinase Nek6 (Homo sapiens) (Q9HC98 whole entry): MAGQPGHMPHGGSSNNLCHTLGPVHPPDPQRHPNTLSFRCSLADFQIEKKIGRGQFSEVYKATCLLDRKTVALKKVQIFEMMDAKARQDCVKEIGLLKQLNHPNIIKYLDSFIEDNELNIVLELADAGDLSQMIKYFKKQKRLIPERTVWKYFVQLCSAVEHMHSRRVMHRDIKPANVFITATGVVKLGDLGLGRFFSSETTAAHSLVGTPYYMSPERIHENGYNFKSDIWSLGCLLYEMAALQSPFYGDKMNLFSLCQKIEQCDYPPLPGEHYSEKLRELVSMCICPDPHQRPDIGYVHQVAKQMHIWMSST

[2] = molecular target: Calcium/calmodulin-dependent protein kinase type II subunit delta (Homo sapiens) (UniProt Q13557); assay: Inhibition of CaMK2d Lys1 labeling site harbouring IPTGQEYAAKIINTK in human Huh-7 cell lysate at 1 uM by KiNativ Profiling analysis relative to control; format: subcellular
Sequence of Calcium/calmodulin-dependent protein kinase type II subunit delta (Homo sapiens) (Q13557 whole entry): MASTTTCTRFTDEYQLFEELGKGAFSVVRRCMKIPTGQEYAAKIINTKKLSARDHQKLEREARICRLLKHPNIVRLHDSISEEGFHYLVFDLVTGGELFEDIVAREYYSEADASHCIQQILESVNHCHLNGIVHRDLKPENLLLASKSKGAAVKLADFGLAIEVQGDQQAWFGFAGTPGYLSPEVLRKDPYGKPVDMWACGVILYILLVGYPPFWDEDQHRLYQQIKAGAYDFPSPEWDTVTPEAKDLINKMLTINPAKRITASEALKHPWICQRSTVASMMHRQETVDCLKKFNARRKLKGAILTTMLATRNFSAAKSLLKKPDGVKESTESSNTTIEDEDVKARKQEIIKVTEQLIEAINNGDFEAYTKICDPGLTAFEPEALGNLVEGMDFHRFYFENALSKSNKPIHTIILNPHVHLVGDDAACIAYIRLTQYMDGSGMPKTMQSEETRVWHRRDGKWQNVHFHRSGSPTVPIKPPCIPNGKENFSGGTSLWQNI

[3] = molecular target: Serine/threonine-protein kinase RIO3 (Homo sapiens) (UniProt O14730); assay: Inhibition of RIOK3 (unknown origin) at 10 uM by Ambit Kinomescan binding assay
Sequence of Serine/threonine-protein kinase RIO3 (Homo sapiens) (O14730 whole entry): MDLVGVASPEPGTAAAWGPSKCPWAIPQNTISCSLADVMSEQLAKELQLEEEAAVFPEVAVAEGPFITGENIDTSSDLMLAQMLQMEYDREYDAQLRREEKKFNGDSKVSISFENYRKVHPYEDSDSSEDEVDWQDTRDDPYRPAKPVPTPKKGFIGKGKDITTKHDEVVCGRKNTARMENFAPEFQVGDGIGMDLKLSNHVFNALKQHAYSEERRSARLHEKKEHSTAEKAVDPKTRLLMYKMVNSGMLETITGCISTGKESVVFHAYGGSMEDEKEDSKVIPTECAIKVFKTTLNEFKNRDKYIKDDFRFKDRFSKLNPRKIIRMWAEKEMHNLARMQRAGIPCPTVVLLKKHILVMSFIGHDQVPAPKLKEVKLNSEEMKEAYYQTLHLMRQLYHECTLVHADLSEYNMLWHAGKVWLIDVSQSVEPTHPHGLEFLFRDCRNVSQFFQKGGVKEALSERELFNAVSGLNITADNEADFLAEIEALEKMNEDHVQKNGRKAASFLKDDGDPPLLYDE

[4] = molecular target: T1, Receptor-interacting serine/threonine-protein kinase 4 (Homo sapiens) (UniProt P57078); assay: Inhibition of RIPK4 (unknown origin) at 10 uM by Ambit Kinomescan binding assay
T1 sequence (whole entry): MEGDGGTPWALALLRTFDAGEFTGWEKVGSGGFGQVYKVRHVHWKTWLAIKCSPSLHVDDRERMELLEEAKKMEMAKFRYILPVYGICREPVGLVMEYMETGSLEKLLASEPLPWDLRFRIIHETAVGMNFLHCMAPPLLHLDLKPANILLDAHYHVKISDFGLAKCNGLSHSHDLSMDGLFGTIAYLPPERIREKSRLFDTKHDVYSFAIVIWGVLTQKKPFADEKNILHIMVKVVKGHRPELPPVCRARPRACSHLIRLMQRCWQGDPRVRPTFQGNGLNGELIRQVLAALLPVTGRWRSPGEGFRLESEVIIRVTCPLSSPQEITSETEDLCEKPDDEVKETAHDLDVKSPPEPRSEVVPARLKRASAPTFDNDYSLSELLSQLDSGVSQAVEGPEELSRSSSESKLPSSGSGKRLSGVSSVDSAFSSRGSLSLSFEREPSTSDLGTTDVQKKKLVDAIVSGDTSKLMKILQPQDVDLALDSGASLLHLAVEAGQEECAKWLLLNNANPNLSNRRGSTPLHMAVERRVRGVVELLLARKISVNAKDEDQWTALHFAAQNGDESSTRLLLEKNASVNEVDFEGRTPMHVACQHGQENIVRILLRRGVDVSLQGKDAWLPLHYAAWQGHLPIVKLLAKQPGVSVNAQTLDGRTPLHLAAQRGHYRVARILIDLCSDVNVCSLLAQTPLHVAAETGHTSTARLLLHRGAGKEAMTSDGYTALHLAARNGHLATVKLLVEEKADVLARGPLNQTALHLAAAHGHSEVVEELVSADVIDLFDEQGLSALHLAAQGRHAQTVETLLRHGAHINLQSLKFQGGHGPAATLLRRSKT

[5] = molecular target: Mitogen-activated protein kinase 14 (Homo sapiens, UniProt Q16539); assay: Inhibition of p38 alpha (unknown origin) at 1 uM by Ambit Kinomescan binding assay relative to control; values are per cent of control
Sequence of Mitogen-activated protein kinase 14 (Q16539 whole entry): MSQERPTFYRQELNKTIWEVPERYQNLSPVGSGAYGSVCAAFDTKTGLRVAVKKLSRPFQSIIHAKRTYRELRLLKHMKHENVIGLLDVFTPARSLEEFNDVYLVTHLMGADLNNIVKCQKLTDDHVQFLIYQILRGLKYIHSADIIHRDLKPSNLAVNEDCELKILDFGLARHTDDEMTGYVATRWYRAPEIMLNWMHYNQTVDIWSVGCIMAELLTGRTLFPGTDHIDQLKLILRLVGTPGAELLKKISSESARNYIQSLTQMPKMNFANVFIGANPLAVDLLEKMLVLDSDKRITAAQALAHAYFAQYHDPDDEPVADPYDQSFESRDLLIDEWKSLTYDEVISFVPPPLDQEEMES

[6] = molecular target: TGF-beta receptor type-2 (Homo sapiens) (UniProt P37173); assay: Inhibition of TGFBR2 (unknown origin) at 1 uM by Ambit Kinomescan binding assay relative to control
Sequence of TGF-beta receptor type-2 (Homo sapiens) (P37173 whole entry, canonical isoform): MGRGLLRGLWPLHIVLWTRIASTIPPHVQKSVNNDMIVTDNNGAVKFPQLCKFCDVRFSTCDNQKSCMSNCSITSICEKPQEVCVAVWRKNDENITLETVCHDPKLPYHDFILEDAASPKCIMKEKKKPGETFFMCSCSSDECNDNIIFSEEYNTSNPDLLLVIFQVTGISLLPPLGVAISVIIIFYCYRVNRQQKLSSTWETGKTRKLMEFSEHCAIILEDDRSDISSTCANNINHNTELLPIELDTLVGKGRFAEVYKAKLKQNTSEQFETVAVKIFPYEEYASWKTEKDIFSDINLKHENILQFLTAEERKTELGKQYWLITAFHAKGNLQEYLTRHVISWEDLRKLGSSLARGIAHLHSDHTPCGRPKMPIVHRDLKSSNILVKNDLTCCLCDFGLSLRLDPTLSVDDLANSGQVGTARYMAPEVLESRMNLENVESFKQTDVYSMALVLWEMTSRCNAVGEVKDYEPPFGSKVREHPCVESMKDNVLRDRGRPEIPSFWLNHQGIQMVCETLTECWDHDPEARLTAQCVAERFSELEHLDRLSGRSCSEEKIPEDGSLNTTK

[7] = molecular target: Phosphatidylinositol 4,5-bisphosphate 3-kinase catalytic subunit beta isoform (Homo sapiens) (UniProt P42338); assay: Inhibition of PIK3CB ATP labeling site in human A-375 cells at 5 uM by KiNativ Profiling analysis relative to control; format: cell-based
Sequence of Phosphatidylinositol 4,5-bisphosphate 3-kinase catalytic subunit beta isoform (Homo sapiens) (P42338 whole entry, looked up, canonical isoform): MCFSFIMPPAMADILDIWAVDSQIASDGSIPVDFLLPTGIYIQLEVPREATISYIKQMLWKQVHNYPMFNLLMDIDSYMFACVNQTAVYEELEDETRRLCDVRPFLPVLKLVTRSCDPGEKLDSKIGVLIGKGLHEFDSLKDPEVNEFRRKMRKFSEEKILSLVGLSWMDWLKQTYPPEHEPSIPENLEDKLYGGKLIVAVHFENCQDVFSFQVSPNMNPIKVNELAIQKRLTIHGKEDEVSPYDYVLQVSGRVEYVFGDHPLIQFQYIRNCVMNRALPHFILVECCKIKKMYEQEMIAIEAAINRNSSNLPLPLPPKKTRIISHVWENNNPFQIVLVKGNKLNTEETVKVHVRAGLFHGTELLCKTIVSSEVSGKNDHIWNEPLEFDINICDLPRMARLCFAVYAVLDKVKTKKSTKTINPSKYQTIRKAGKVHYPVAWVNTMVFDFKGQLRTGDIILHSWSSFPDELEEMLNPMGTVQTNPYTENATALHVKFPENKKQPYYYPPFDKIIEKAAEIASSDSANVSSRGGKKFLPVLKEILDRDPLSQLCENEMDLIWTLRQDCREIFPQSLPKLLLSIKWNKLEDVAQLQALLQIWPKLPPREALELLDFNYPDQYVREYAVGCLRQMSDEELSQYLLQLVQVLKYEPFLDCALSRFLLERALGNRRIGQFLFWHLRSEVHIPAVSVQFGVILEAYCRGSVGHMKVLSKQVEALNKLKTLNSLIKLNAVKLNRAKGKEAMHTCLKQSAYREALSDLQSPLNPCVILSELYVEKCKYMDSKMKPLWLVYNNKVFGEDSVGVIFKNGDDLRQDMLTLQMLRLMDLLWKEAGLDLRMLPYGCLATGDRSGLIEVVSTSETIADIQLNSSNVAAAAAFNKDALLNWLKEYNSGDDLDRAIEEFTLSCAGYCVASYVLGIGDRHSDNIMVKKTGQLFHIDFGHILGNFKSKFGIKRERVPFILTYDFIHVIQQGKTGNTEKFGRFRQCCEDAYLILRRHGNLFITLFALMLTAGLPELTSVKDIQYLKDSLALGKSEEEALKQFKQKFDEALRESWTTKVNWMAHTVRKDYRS

[8] = molecular target: Serine/threonine-protein kinase 4 (Homo sapiens) (UniProt Q13043); assay: Inhibition of MST1 Lys2 labeling site harbouring DIKAGNILLNTEGHAK in human A-375 cells at 0.5 uM by KiNativ Profiling analysis relative to control
Sequence of Serine/threonine-protein kinase 4 (Homo sapiens) (Q13043 whole entry, looked up): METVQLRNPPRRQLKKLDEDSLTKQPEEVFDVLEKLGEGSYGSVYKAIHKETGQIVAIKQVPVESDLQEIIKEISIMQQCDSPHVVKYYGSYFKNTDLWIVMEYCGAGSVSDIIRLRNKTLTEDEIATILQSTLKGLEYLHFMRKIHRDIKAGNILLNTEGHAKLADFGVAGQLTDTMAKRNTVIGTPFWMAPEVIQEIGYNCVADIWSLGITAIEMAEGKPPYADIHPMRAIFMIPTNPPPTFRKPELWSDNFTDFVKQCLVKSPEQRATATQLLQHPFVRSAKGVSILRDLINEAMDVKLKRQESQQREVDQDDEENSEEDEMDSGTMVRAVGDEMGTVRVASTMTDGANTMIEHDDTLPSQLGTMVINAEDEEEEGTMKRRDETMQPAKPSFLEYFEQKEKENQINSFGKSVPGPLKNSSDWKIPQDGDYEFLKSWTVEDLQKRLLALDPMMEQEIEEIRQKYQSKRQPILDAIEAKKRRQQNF

[9] = molecular target: Serine/threonine-protein kinase Nek5 (Homo sapiens) (UniProt Q6P3R8); assay: Inhibition of NEK5 (unknown origin) at 1 uM by Ambit Kinomescan binding assay relative to control; values are per cent of control
Sequence of Serine/threonine-protein kinase Nek5 (Homo sapiens) (Q6P3R8 whole entry): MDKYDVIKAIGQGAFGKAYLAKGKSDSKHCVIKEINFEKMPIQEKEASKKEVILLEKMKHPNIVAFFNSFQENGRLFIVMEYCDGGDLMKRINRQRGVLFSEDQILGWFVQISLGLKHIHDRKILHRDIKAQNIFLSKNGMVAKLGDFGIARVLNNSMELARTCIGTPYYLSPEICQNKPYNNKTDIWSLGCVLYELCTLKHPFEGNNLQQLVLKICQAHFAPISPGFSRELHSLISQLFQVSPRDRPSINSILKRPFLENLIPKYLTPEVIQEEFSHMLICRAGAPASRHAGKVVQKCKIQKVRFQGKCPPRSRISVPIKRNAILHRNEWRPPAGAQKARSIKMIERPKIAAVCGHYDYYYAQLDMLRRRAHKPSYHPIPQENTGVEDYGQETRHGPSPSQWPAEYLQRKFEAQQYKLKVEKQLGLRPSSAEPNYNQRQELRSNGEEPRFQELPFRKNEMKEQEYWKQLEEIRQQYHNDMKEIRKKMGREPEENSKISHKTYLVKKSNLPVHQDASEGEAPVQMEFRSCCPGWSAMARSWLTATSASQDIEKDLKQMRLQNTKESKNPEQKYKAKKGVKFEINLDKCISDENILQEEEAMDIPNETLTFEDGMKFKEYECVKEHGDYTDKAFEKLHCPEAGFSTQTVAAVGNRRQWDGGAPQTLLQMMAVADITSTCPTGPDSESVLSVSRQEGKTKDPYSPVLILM

[10] = tested on: Tyrosine-protein kinase ABL1 (Homo sapiens), P00519 [F317L]; assay: Inhibition of phosphorylated ABL1 F317L mutant (unknown origin) at 1 uM by Ambit Kinomescan binding assay relative to control; values are per cent of control

CNc1cc(Oc2cc(C(=O)Nc3cc(N4CCN(C)CC4)cc(C(F)(F)F)c3)ccc2C)ncn1
inhibition [1]: -5%
inhibition [2]: 1.4%

CCN1CCN(Cc2ccc(NC(=O)c3ccc(C)c(Oc4ccnc5[nH]ccc45)c3)cc2C(F)(F)F)CC1
inhibition [3]: inactive
inhibition [4]: inactive

CCN1CCN(Cc2ccc(NC(=O)c3ccc(C)c(/C=C/c4cnc5[nH]ccc5c4OC)c3)cc2C(F)(F)F)CC1
residual activity [5]: 1.7%
inhibition [6]: 52%
inhibition [7]: 26.6%
inhibition [8]: -9.8%
residual activity [9]: 47%
percent of control [10]: 3.4%
